{
  "source": "patent US11406633B2",
  "about": "“Dosing schedule of a Wnt inhibitor and an anti-PD-1 antibody molecule in combination” (Novartis AG, priority 2017, dated 2022)",
  "key": {"[1]": {"conditions": "dog, in vivo"}, "[2]": {"experiment": "animal toxicity studies in rat", "from_the_text": "(§1) Recently, the secreted glycoproteins R-spondins 1-4 (RSPO1-4) have emerged as important activators of canonical Wnt signaling. RSPOs bind to leucine-rich repeat-containing G-protein-coupled receptors (LGR4-6) and the transmembrane E3 ubiquitin ligases RING finger 43/zinc and RING finger 3 (RNF43/ZNRF3), forming a ternary complex (Chen et al. Genes Dev; 2013, 27, 1345). RNF43/ZNRF3 antagonize Wnt signaling by promoting the turnover of Fz and LRP6 (Hao et al. Nature 2012, 485 (7397), 195-200; Koo et al. Nature, 2012, 488 (7413), 665). Binding of RSPO induces the endocytosis of RNF43/ZNRF3, thereby increasing levels of membrane-bound Fz and LRP6 and enhancing Wnt ligand-mediated signaling. In order to activate signaling within target cells, Wnt proteins must be properly secreted and transported across the extracellular space. Porcupine is a membrane-bound-O-acyltransferase (MBOAT) that adds palmitoyl groups to Wnt proteins (Takada et al. Dev. Cell 2006, 11, 791). Mutations in components of the canonical Wnt pathway such as APC and β-catenin play important roles in the pathogenesis of some malignancies and those genetic lesions affect upstream Wnt pathway regulation. The inhibition of the Wnt pathway signaling was recently associated with several drawbacks such as side effects and dose limiting toxicities. Such drawbacks were limiting the anti-tumor efficacy of Wnt inhibitors. Separately, activation of the Wnt pathway was linked to resistance to immunotherapy and offers a mechanism by which tumors can evade immune detection and decrease clinical benefit to check-point inhibitors (Spranger et al. Nature 2015, 523, 231). For example, the Wnt inhibitor of the present disclosure, namely 2-(2′,3-dimethyl-[2,4′-bipyridin]-5-yl)-N-(5-(pyrazin-2-yl)pyridin-2-yl)acetamide was tested and the levels of pLRP6 and AXIN2qPCR were analyzed in biopsies of skin and tumors."}, "[3]": {"tested_on": "tumor-immune microenvironment / WNT pathway (AXIN2)", "experiment": "NanoString gene expression of paired tumor biopsies (screening vs on treatment), immune gene signatures fitted against AXIN2 change", "assay_type": "in vivo, human", "conditions": "for relationship between AXIN2 inhibition and increased expression of the dendritic cell signature (CD103+) / relationship between AXIN2 inhibition and increased expression of the chemokine signature (CD8+ T-cell recruitment): log 2 fold-change screening to on-treatment, 9 paired samples; for relationship between AXIN2 inhibition and increased expression of the dendritic cell signature (CD103+): 15 days of exposure; for relationship between AXIN2 inhibition and increased expression of the chemokine signature (CD8+ T-cell recruitment): about 15 days of exposure", "from_the_text": "NanoString measures gene expression for a selected panel of up to about 1000 genes. This is executed using uniquely barcoded probes that hybridize directly to target RNAs (ribonucleic acids). The RNA-probe hybrids are then run out on a gel to linearize the barcodes. These barcodes are then counted and then normalized using an internally developed pipeline. […] Tumors were fixed in formalin and embedded in paraffin (FFPE) or directly placed in RNA Later. These samples were transferred to Genoptix where RNA was isolated for real time qPCR analyses of the pharmacodynamics (PD) marker AXIN2. Remnant RNA was transferred to the assay research laboratory (ARL) where gene expression was profiled using (2016) NanoString pan-cancer immune profiling panel as well as a custom design panel of immune-related genes. Gene expression was normalized using methods recommended by NanoString, with the exception that samples were normalized within specific indications (e.g. melanoma or pancreatic cancer samples were normalized separately) and housekeeping genes were selected using the geNorm stability metric [PMID: 12184808]. Certain genes overlapped between both panels, which we used to assess variability and other quality control parameters. […] The count data described herein was normalized according to the methods recommended by NanoString with one exception, namely that the samples were normalized within the specific indications as described herein and approximately 40 housekeeping genes (defined on the NanoString website for their commercially available cancer immune panel, 2016) were used for biological normalization across samples. Gene signatures were used before to probe the data for phenotypic changes in the tumor-immune microenvironment. It has been previously shown that in genetically engineered mice with activated WNT signaling the dendritic cells and T-cells in the tumor microenvironment are inhibited; however, it has not been shown that this effect is reversible. Therefore, our objective was to use gene expression analyses in samples from the patients treated with the Wnt inhibitor to determine the extent to which the inhibitory effects of WNT signaling in the tumor on the proximal immune cells can be reversed by pharmacological inhibition of the WNT pathway. To understand whether the Compound of Formula (I) has effects on the tumor immune microenvironment, we looked at the relationships between immune gene expression and the PD marker AXIN2. By using this marker, we can understand the extent to which the WNT pathway has been inhibited in a given tumor. Instead of focusing on individual genes, we used the geometric average expression of sets of genes (gene signatures) that describe a particular pathway or cellular function. One gene signature is a chemokine signature that is associated with recruitment of CD8+ T-cells [PMID: 19293190] and other signature is associated with activated CD103+ dendritic cells [PMID: 25970248]. Not every subject presented with a strong inhibition of the WNT pathway as evidenced by the fold-changes observed in AXIN2 expression. […] These dendritic cells, when stimulated, function to recruit T-cells to the tumor. Importantly, this observation was made after 15 days of exposure to the Wnt inhibitor, which supported that intermittent dosing of the Compound of Formula (I) could be combined with a checkpoint inhibitor to stimulate an anti-tumor immune response in the context of tumors that previously had lacked immune infiltrate. […] The changes in AXIN2 expression were fitted by linear model to immune signature changes. […] Both are in log 2 scale. A positive value indicates an increase in the average expression of the genes in a given signature or in AXIN2. […] Second, a relationship between interferon gamma (or type II interferon) and AXIN2 inhibition was observed. Interferon gamma is typically expressed by CD8+ T-cells. […]"}, "[4]": {"tested_on": "Wnt pathway", "experiment": "pLRP6 and AXIN2 qPCR levels in biopsies of skin and tumors after treatment", "assay_type": "in vivo, human", "conditions": "post-treatment skin sample biopsies", "from_the_text": "as §1, with “Mutations in components of the canonical Wnt pathway such as APC and β-catenin play important roles in the pathogenesis of some malignancies and those genetic lesions affect upstream Wnt pathway regulation. The inhibition of the Wnt pathway signaling was recently associated with several drawbacks such as side effects and dose limiting toxicities. Such drawbacks were limiting the anti-tumor efficacy of Wnt inhibitors. Separately, activation of the Wnt pathway was linked to resistance to immunotherapy and offers a mechanism by which tumors can evade immune detection and decrease clinical benefit to check-point inhibitors (Spranger et al. Nature 2015, 523, 231).” left out"}, "[5]": {"tested_on": "tumor", "experiment": "other single-agent studies: cytotoxic gene signature and tumor efficacy", "assay_type": "in vivo", "conditions": "alone as a single agent", "from_the_text": "as §1, with “Mutations in components of the canonical Wnt pathway such as APC and β-catenin play important roles in the pathogenesis of some malignancies and those genetic lesions affect upstream Wnt pathway regulation. The inhibition of the Wnt pathway signaling was recently associated with several drawbacks such as side effects and dose limiting toxicities. Such drawbacks were limiting the anti-tumor efficacy of Wnt inhibitors. Separately, activation of the Wnt pathway was linked to resistance to immunotherapy and offers a mechanism by which tumors can evade immune detection and decrease clinical benefit to check-point inhibitors (Spranger et al. Nature 2015, 523, 231).” left out"}, "[6]": {"experiment": "animal toxicity studies in dog", "conditions": "dogs"}, "[7]": {"experiment": "clinical study of the Wnt inhibitor: bone events", "assay_type": "in vivo, human", "conditions": "patients", "from_the_text": "The Wnt signaling pathway is required for development and survival of osteoblasts (involved in bone formation) and negatively regulates osteoclasts (involved in bone resorption). […] In addition, the short intermittent dosing of Wnt inhibitor was sufficient to result in upregulation of the activated dendritic cells signature. This is relevant because this subtype of dendritic cell is important for recruiting and activating T cells for an anti-tumoral response. Inhibition of the Wnt signaling in cancer treatment improves the response rate to PD-1 inhibition through release of inhibition of dendritic cells and T-cell activation. Overall, the combination of the Wnt inhibitor (i) and an anti-PD-1 antibody molecule, wherein Wnt inhibitor is administered only at the beginning of the treatment cycle for, e.g. 8 or 15 days, can show mutually coordinated effect of both compounds and offer better efficacy and […] safety profile compared to, for example, use of the Wnt inhibitor (i) alone."}, "[8]": {"conditions": "determined within the CPDR001X2101 clinical study; cited from earlier work"}},
  "note": "Like-named read-outs stand apart in the source and are kept apart here.",
  "data": [
    {"compound": "Cc1cc(-c2ncc(CC(=O)Nc3ccc(-c4cnccn4)cn3)cc2C)ccn1", "note": "[Compound of Formula (I), 2-(2′,3-dimethyl-[2,4′-bipyridin]-5-yl)-N-(5-(pyrazin-2-yl)pyridin-2-yl)acetamide]", "values": [
      {"measurement": "toxicities (organs affected)", "setting": "[1]", "result": "toxicities in gastrointestinal (GI) tract, bones and teeth"},
      {"measurement": "trabeculae", "setting": "[2]; rat studies", "result": "decrease in trabeculae"},
      {"measurement": "toxicities (organs affected)", "setting": "[2]; rat, in vivo", "result": "toxicities in gastrointestinal (GI) tract, bones and teeth"},
      {"measurement": "effects on bone marrow", "setting": "[2]; rats", "result": "secondary effects"},
      {"measurement": "surrounding dendritic cell population on pharmacological inhibition of the WNT pathway", "setting": "[3]; after 15 days of exposure", "result": "concomitant stimulation"},
      {"measurement": "relationship between AXIN2 inhibition and increased expression of the dendritic cell signature (CD103+)", "setting": "[3]", "result": "fairly linear relationship"},
      {"measurement": "relationship between AXIN2 inhibition and increased expression of the dendritic cell signature (CD103+)", "setting": "[3]; listed as Wnt inhibitor (i)", "result": "fairly linear relationships"},
      {"measurement": "relationship between AXIN2 inhibition and increased expression of the chemokine signature (CD8+ T-cell recruitment)", "setting": "[3]", "result": "fairly linear relationship"},
      {"measurement": "relationship between AXIN2 inhibition and increased expression of the chemokine signature (CD8+ T-cell recruitment)", "setting": "[3]; listed as WNT inhibitor (i)", "result": "linear relationship"},
      {"measurement": "relationship between AXIN2 inhibition and increased expression of the chemokine signature (CD8+ T-cell recruitment)", "setting": "[3]; listed as Wnt inhibitor (i)", "result": "fairly linear relationships"},
      {"measurement": "relationship between AXIN2 inhibition and T-regulation (T-reg) signature", "setting": "[3]; log 2 scale, FIG. 4", "result": "modest inverse relationship"},
      {"measurement": "relationship between AXIN2 inhibition and mast cell signature", "setting": "[3]; log 2 scale, FIG. 4", "result": "modest inverse relationship"},
      {"measurement": "relationship between type I interferon signature and AXIN2 inhibition", "setting": "[3]; log 2 scale, FIG. 4", "result": "weak relationship"},
      {"measurement": "immune cell infiltrates in the tumor-immune microenvironment", "setting": "[3]; patient tumor biopsies", "result": "increasing immune cell infiltrates"},
      {"measurement": "inhibition of CD103+ dendritic cells", "setting": "[3]; patient tumor biopsies", "result": "alleviating the inhibition of CD103+ dendritic cells"},
      {"measurement": "immune signatures in tumors", "setting": "[3]; patients, Wnt inhibitor alone", "result": "changes in immune signatures in tumors"},
      {"measurement": "activated dendritic cells signature", "setting": "[3]; short intermittent dosing", "result": "upregulation"},
      {"measurement": "level of AXIN2 (qPCR)", "setting": "[4]", "result": "inhibited"},
      {"measurement": "level of pLRP6", "setting": "[4]", "result": "inhibited"},
      {"measurement": "cytotoxic gene signature", "setting": "[5]", "result": "increased"},
      {"measurement": "tumor efficacy", "setting": "[5]", "result": "lack of tumor efficacy"},
      {"measurement": "effects on kidneys", "setting": "[6]", "result": "secondary effects"},
      {"measurement": "bone fractures", "setting": "[7]", "result": "some patients experienced bone fractures"}
    ]},
    {"compound": "PDR001: anti-PD-1 antibody molecule with VH and VL CDR sequences of BAP049-Clone-E, described in PCT/CN2016/099494", "values": [
      {"measurement": "RP2D", "setting": "[8]", "result": "dose of 400 mg Q4W is the RP2D determined within the CPDR001X2101"}
    ]}
  ]
}
